Test results from the METLIN SMRT retention time set (Domingo-Almenara et al. 2019).

Test: gradient 5% acetonitrile 3 min, to 50% in 2 min, to 85% in 15 min, held 3 min, 100 µL/min
Conditions: column: Zorbax Extend-C18 2.1 x 50 mm; eluents: water / acetonitrile, 0.1% formic acid
Method in brief: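 Retention times of pure standards were taken from adduct peaks that were selected by computer and manually inspected. Over 3 months, mixtures of ~100 molecules were run by HPLC–quadrupole time-of-flight mass spectrometry in positive and negative ionization mode. The Zorbax Extend-C18 column (2.1 × 50 mm, 1.8 μm) ran at 100 μL/min in water and acetonitrile, each containing 0.1% formic acid, with 40 μL dead volume and 900 μL dwell volume.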

Row | SMILES | RP-LC retention time [s]
1 | O=C(Nc1cccc(F)c1)c1n[nH]nc1Nc1cccc(F)c1 | 1050
2 | Cc1ccc(C)c(-c2nc(-c3ccc4c(c3)oc(=O)n4C)no2)c1 | 1220
3 | O=C(COc1ccccc1)N1CCCC(OCc2nc(C3CC3)no2)C1 (stereo unspecified) | 610
4 | CSc1nnc(CCc2c(C)[nH]c(=O)[nH]c2=O)o1 | 549
5 | COCC(=O)N1CCCc2ccc(NC(=O)c3cc(C)oc3C)cc21 | 725
6 | CCN(CC)S(=O)(=O)c1ccc2c(c1)N(CC(=O)NCCOC)C(=O)C1CCCCN21 (stereo unspecified) | 788
7 | O=C(Nc1ccccc1)N1CCCC1c1nncn1C1CCCC1 (stereo unspecified) | 622
8 | Cc1c(C(=O)NC2CC2)cnn1-c1cc(-c2nc(C3CC3)no2)ccn1 | 843
9 | Cc1cccc(S(=O)(=O)Nc2cccn3ncnc23)c1 | 729
10 | NS(=O)(=O)c1ccc2nc(NC(=O)C3=COCCO3)sc2c1 | 613
11 | CCN1CCN(C(=O)Cc2c(C(=O)O)c(C)cn2CC)CC1 | 568
12 | O=C(NC1CCCC1)C1CCCN(c2ccc3cc(S(=O)(=O)N4CCCCC4)ccc3n2)C1 (stereo unspecified) | 781
13 | CCCN(C)S(=O)(=O)c1cc(-c2nc(C)cs2)n(CC(=O)N2CCCCC2)c1 | 967
14 | CS(=O)(=O)N1CCC(C(=O)N2CCC3(CC2)OCCS3)CC1 | 625
15 | O=C(O)CCC1CCN(S(=O)(=O)c2ccccc2)CC1 | 739
16 | Cc1sc(NC(=O)C(C)C)nc1-c1ccc2c(c1)NC(=O)C(C)O2 (stereo unspecified) | 831

Row | SMILES | RP-LC retention time [s]
17 | CC(C)c1csc(-c2csc(S(=O)(=O)NCc3ccccc3)c2)n1 | 1040
18 | CC(C)n1c(=O)c(NCCCc2ccccc2)nc2ccncc21 | 707
19 | CCCn1cc(C(=O)NCc2ccccc2F)c(S(=O)(=O)N2CCC(C)CC2)n1 | 1090
20 | O=c1ccc(-c2ccccc2)nn1CCc1nc(-c2cccc(Br)c2)no1 | 1090
21 | COc1cccc(S(=O)(=O)N2CCc3c(c(-c4nnc(-c5ccccc5)o4)nn3C)C2)c1 | 933
22 | COc1cccc(CNC(=O)C2CCCN2S(=O)(=O)c2cc3c(cc2C)NC(=O)CO3)c1 (stereo unspecified) | 721
23 | CCN1C(=O)CCc2cc(NC(=O)C3CCC3)ccc21 | 691
24 | Cc1ccc(S(=O)(=O)N2CCC3(CC2)NCCCN=C3NC2CCCC2)cc1Cl | 814
25 | O=S(=O)(c1cc(F)ccc1F)N1CCC(c2noc(COCC3CC3)n2)CC1 | 1000
26 | CNC(=O)C1CCCN(c2nc3ncn(CC(=O)Nc4ccc5c(c4)OCCO5)c(=O)c3s2)C1 (stereo unspecified) | 627
27 | c1cc(CN2CC(Oc3ccc(-c4noc(C5CCOCC5)n4)cc3)C2)cs1 | 671
28 | CCCOc1ccc(-c2nnc3sc(-c4ccncc4)nn23)cc1 | 642
29 | CCOC(=O)c1nc(NCCN(C)Cc2ccccc2)c2c(C)noc2n1 | 623
30 | COc1ccc2c(C)cc(SCC(=O)Nc3c(C)cccc3C)nc2c1 | 995
31 | CCc1cc(-c2csc(S(=O)(=O)N3CCN(C4CCCCC4)CC3)c2)on1 | 723
32 | COc1ccc(NC(=O)NCCn2c(-c3ccncc3)nc3cccnc32)cc1 | 608

The remaining lines, values ahead:

Row | RP-LC retention time [s] | SMILES
33 | 777 | CCS(=O)(=O)Nc1ccc(-c2noc(C(C)NC(=O)c3ccccc3)n2)cc1 (stereo unspecified)
34 | 627 | COc1ccc(-c2nc3cccnc3n2C2CCN(C(=O)NCc3ccco3)C2)cc1 (stereo unspecified)
35 | 588 | COC(=O)C1=C(CN2CCCC2)NC(=O)NC1c1ccccc1C (stereo unspecified)
36 | 899 | O=C1C(c2cccs2)N(Cc2ccc3c(c2)OCO3)C(=O)CN1c1ccccc1 (stereo unspecified)
37 | 624 | Nc1nc(N2CCN(C3CCCCC3)CC2)ncc1C(=O)Nc1ccccc1
38 | 890 | O=C(NC1CCCC1)c1ccc2ccnc(N3CCN(c4ccc(Cl)cc4)CC3)c2c1
39 | 767 | Cc1ccc(N(C)C(=O)n2cnc3ccccc32)cc1
40 | 1020 | CCc1nc(-c2csc(S(=O)(=O)N3CCC(C(=O)N4CCc5ccccc5C4)CC3)c2)no1
41 | 929 | CCc1nc(-c2ccc(S(=O)(=O)N3CCC(C(=O)NCc4ccc5c(c4)OCO5)CC3)cc2)no1
42 | 865 | COc1ccc(N2CC(c3nc(-c4ccccc4F)no3)CC2=O)cc1 (stereo unspecified)
43 | 566 | O=C(NCc1ccccc1Cl)C(=O)NCC1CCN(C(=O)COc2ccccc2)CC1
44 | 604 | O=C(c1cc(-c2ccncc2)nc2ccc(Cl)cc12)N1CCN(c2ccccn2)CC1
45 | 1010 | Cc1ccc(N2CC(c3noc(-c4ccc(F)cc4)n3)CC2=O)cc1 (stereo unspecified)
46 | 1210 | Cc1ccc(-c2nnc(-c3nn(C)c4c3CN(S(=O)(=O)c3ccc(C(C)(C)C)cc3)CC4)o2)cc1
47 | 833 | COc1cc(=O)n2c(c1C(=O)Nc1ccc(Br)c(C)c1)CCCC2
48 | 1260 | CCc1ccc(NC(=O)c2sc(-c3cccn3CC)nc2C)cc1
49 | 581 | Cc1oc(-c2ccc(C(=O)NCCCN3CCN(C)CC3)cc2)nc1CS(=O)c1ccccc1 (stereo unspecified)

Row | RP-LC retention time [s] | SMILES
50 | 826 | Cc1ccccc1S(=O)(=O)N1CCC(N2CCN(Cc3ccccc3)C(=O)C2=O)CC1
51 | 607 | Cc1nc(N2CCOCC2)cc(N2CCN(C(=O)c3cccs3)CC2)n1
52 | 708 | CCC(=O)Nc1ccc(-n2cnc(C(=O)N3CCN(c4ccccc4)CC3)c2)nc1
53 | 581 | CCc1ccc(NC(=O)N2CCc3[nH]cnc3C2c2ccncc2)cc1 (stereo unspecified)
54 | 571 | CN1CCN(C(=O)C(=O)Nc2c3c(nn2-c2cccc(Cl)c2)CSC3)CC1
55 | 728 | Cc1ccc(N2CCN(C(=O)c3ccc(CN4CCN(C(C)C)C(=O)C4=O)cc3)CC2)cc1
56 | 643 | Cc1cc(=O)n(CC(=O)Nc2ccccc2F)c(N2CCOCC2)n1
57 | 1040 | O=C(C1CCN(c2nc3ccc(-c4ccccc4)nc3s2)CC1)N1CCCCC1
58 | 810 | CN(C)S(=O)(=O)c1ccc(C(=O)Nc2nc(-c3ccc4c(c3)NC(=O)CO4)cs2)cc1
59 | 857 | Cc1cc(C(=O)Nc2ccc(-c3nc4ccccc4o3)cc2)no1
60 | 612 | COc1cc(NC(=O)N2CCC(CN3CCc4ccccc4C3)CC2)cc(OC)c1OC
61 | 679 | COCCCNC(=O)N1CCCN(C2=NS(=O)(=O)C(c3ccccc3)=C2C)CC1
62 | 943 | Cc1ccc(C)c(NC(=O)c2cnc(-c3ccc(F)cc3)nc2-c2ccncc2)c1
63 | 841 | CC1(C(=O)NCc2ccc(F)cc2)CN(S(C)(=O)=O)CC(=O)N1Cc1ccc(F)cc1 (stereo unspecified)
64 | 1250 | Cc1ccc(Cn2cc(-c3nc(-c4ccc(Cl)cc4)no3)ccc2=O)cc1
65 | 821 | CCCn1cc(CCNC(=O)c2ccc(Cl)cc2)c2cccnc21
66 | 577 | COc1cccc(CNC(=O)Cn2ccnc2-c2ccnc(N3CCCC3)c2)c1
